Measured values from ChEMBL document CHEMBL3046533, “Molecular drug design, synthesis and pharmacophore site identification of spiroheterocyclic compounds: Trypanosoma crusi inhibiting studies” (Med Chem Res, 2013).

Experiments:
[1] = Cytotoxicity against Mus musculus BALB/c (mouse) splenocytes assessed as decrease in [3H]-thymidine incorporation after 24 hr by beta-radiation counting analysis; assay type: cell-based, Splenocyte; settings: read-out: MNCC
Trypanosoma cruzi [2] = assay: Antitypanosomal activity against benznidazole-resistant trypomastigote stage of Trypanosoma cruzi Y assessed as parasite growth inhibition after 24 hr by hemacytometric analysis; assay type: functional, organism-based
Trypanosoma cruzi [3] = assay: Antitypanosomal activity against benznidazole-resistant epimastigote stage of Trypanosoma cruzi Y assessed as parasite growth inhibition after 11 days by hemacytometric analysis; assay type: functional, organism-based
Trypanosoma cruzi [4] = assay: Ratio of benznidazole IC50 to compound IC50 for benznidazole-resistant trypomastigote stage of Trypanosoma cruzi Y; assay type: functional
Trypanosoma cruzi [5] = assay: Ratio of nifurtimox IC50 to compound IC50 for benznidazole-resistant trypomastigote stage of Trypanosoma cruzi Y; assay type: functional
[6] = Cytotoxicity against Mus musculus BALB/c (mouse) splenocytes assessed as decrease in [3H]-thymidine incorporation at 1 to 100 ug/mL after 24 hr by beta-radiation counting analysis relative to untreated control; assay type: cell-based; settings: splenocyte
[7] = Trypanosoma cruzi, Y, 24 h, read-out: IC50
[8] = Trypanosoma cruzi, Y, 264 h, read-out: IC50

Structure (SMILES)	MNTC at 24 h [1]	IC50 (Trypanosoma cruzi [2]; [7]) [µM]	IC50 (Trypanosoma cruzi [3]; [8]) [µM]	Ratio IC50 (Trypanosoma cruzi [4])	Ratio IC50 (Trypanosoma cruzi [5])	IC50 (Trypanosoma cruzi [2])	Activity [6]	IC50 (Trypanosoma cruzi [3])
Cc1ccc(C2=NOC3(SCc4ccccc4C3=O)C2c2ccc(C)cc2)cc1 (stereo unspecified)	50 µg/mL	3.78	19.1	3	3			
COc1ccc(C2C(c3ccc(C)cc3)=NOC23SCc2ccccc2C3=O)cc1 (stereo unspecified)	5 µg/mL	19	5.5					
COc1ccc(C2=NOC3(SCc4ccccc4C3=O)C2c2ccc(C)cc2)cc1 (stereo unspecified)	10 µg/mL	1.9	62.5	3	3			
COc1ccc(C2=NOC3(SCc4ccccc4C3=O)C2c2ccc(OC)cc2)cc1 (stereo unspecified)	50 µg/mL	1.5	1.95					
O=C1c2ccccc2CSC12ON=C(c1ccc(Cl)cc1)C2c1ccc([N+](=O)[O-])cc1 (stereo unspecified)	5 µg/mL	22	20.5					
Cc1ccc(C2C(c3ccc([N+](=O)[O-])cc3)=NOC23SCc2ccccc2C3=O)cc1 (stereo unspecified)	50 µg/mL	45.4	27.9					
COc1ccc(C2C(c3ccccc3)=NOC23CSc2ccccc2C3=O)cc1 (stereo unspecified)						Not Active	Non-toxic	Not Active
Cc1ccc(C2=NOC3(CSc4ccccc4C3=O)C2c2ccccc2)cc1 (stereo unspecified)						Not Active	Non-toxic	Not Active
COc1ccc(C2C(c3ccc(C)cc3)=NOC23CSc2ccccc2C3=O)cc1 (stereo unspecified)						Not Active	Non-toxic	Not Active
Cc1ccc(C2=NOC3(CSc4ccccc4C3=O)C2c2ccc([N+](=O)[O-])cc2)cc1 (stereo unspecified)						Not Active	Non-toxic	Not Active
O=C(Cn1ccnc1[N+](=O)[O-])NCc1ccccc1 [BENZNIDAZOLE]			6.6					
CC1CS(=O)(=O)CCN1/N=C/c1ccc([N+](=O)[O-])o1 (stereo unspecified) [NIFURTIMOX]	3.4 µM							
